These are literature values, as cited in patent publication US20220275055A1, “DRUG TARGET OF IDIOPATHIC PULMONARY FIBROSIS” (National Institute of Biological Sciences, Beijing, priority 2019, published 2022).

For this series the following is noted: idiopathic pulmonary fibrosis (IPF); background statement.

As to `COC(=O)c1ccc2c(c1)NC(=O)/C2=C(\Nc1ccc(N(C)C(=O)CN2CCN(C)CC2)cc1)c1ccccc1` [nintedanib], the survival time entry is “failed to show significantly increased survival time”.

As to `Cc1ccc(=O)n(-c2ccccc2)c1` [pirfenidone], the survival time entry is on record as “failed to show significantly increased survival time”.
